Assay results as given in patent publication US20180106782A1, “HIGH THROUGHPUT CARDIOTOXICITY SCREENING PLATFORM” (The Board of Trustees of the Leland Stanford Junior …, priority 2016, published 2018).

What was measured:
μpatterned hiPSC-CMs [1] = assay: sarcomere length (sl) and sarcomere shortening (ss) from videos of labeled myofibrils; type: cell-based, human; settings: for average values of sl (sarcomere length): single cell with labeled myofibrils (FIG. 7A, 7E)
Experimental: We analyzed videos of beating patterned hiPSC-CMs with LifeAct-labeled myofibrils (Ribeiro 2015a) to quantify the organization and dynamics of sarcomeres along myofibrils. Sarcomere shortening and movement during the contractile cycle was determined from analyzing how the size of all labeled sarcomeres in a single hiPSC-CM varies during each of its contractile cycles. The minimal length that separates two proximal Z-lines defines sarcomere size. LifeAct labels actin between Z-lines, which correspond to dark lines in LifeAct-labeled myofibrils. (Ribeiro 2015a) Therefore, the minimal distance between adjacent dark lines in LifeAct-labeled myofibrils defines sarcomere size. We used four different approaches to quantify sarcomere size along LifeAct-labeled myofibrils from frames of single beating hiPSC-CMs (FIG. 12) and used the second approach for performing better when analyzing videos with minimal user intervention.
The second approach (FIG. 12B) is a novel method that we developed to determine sarcomere lengths in each frame without the need of curve-fitting procedures or radial Fourier transforms. The approach consists of automatically measuring the length of the segment between adjacent Z-lines that is parallel to the direction of myofibril alignment (FIG. 15). The algorithm for this approach measured the length from Z-line i to Z-line i+1 using information on myofibril orientation in the region around Z-line i and Z-line i+1 and considering a skeleton of sarcomeres generated as previously detailed for the first approach. The algorithm developed first a map of all points that compose the sarcomere skeleton and each point was taken once as a starting location of a path along the direction of myofibril orientation that stopped when another Z-line in the skeleton was reached (FIG. 15). The length between adjacent Z-lines was therefore defined as the Euclidean distance between start and end points calculated with this method (FIG. 15). The path was calculated pixel by pixel within the skeletonized image. For each new pixel of the path, the algorithm evaluated what the other pixel of the path was based on the local orientation of the myofibril. For pixels that were starting points or pixels already in a path, the local orientation angle of myofibrils was taken as the deciding factor to determine the next path pixel. In the algorithm, we particularly defined that the y direction of the path could be chosen freely, but only pixels in the +x direction could be candidates for the next element of the path (FIG. 15). This definition derived from the fact that every point composing the skeleton was considered as a starting point and because orientations of myofibrils are in the [0,Th] range. In relation to a known point of a path, the next neighboring pixel to be included as the next element of that path could be the pixel on the right, on the top, on the bottom, on the top right or on the bottom right (FIG. 15-B). Given this condition, a 10° angle or a 0° angle of known myofibril orientation lead to the same decision for the next pixel to include in the path: the pixel on the right. We estimated the local orientation of myofibrils through the MATLAB-written code RIDGEORIENT. (Kovesi 2000) This tool indicates the principle ridge direction through local gradient variations. By definition, the gradient is […] to the main orientation. (Krause 2009)
The global orientation of a myofibril between Z-lines was also taken in consideration for deciding the next pixel in the path between Z-lines (FIG. 15) because small angles can add up during the extending of the line defined by the path and better reveal the real myofibril orientation. For example, starting at a pixel on a Z-line (x1, y1) with a local orientation angle θ1=10°, the next pixel would have to be (x1+1, y1). If θ2=10°, the next pixel would again be to the right, adding (x1+2, y1) to the path. […]

μpatterned hiPSC-CMs [2] = assay: cell movement from brightfield videos of beating μpatterned hiPSC-CMs (cross-correlation within ROI); type: cell-based, human; settings: for aδ (temporal asynchronicity) / d (displacement) / VR (peak velocity of relaxation) / VC (peak velocity of contraction) / aθ (spatial asynchronicity): brightfield, single cell
Experimental: We imaged the movement of beating hiPSC-CMs and the displacement of fluorescent microbeads embedded in polyacrylamide substrates with a Zeiss Axiovert 200M inverted microscope equipped with a Zeiss Axiocam MRm CCD camera. This microscope also contained an environmental chamber (PeCon) to set temperature at 37° C. Unless otherwise noted, we acquired microscopy videos while electrically pacing hiPSC-CMs with 10 ms-wide bipolar pulses of electric-field stimulation at 10-15 V with a frequency of 1 Hz (Myopacer, lonOptix). To induce contractile changes in hiPSC-CMs, we added drugs known to affect CM contractile machinery to the culture medium. We analyzed the mechanical output of cells after adding drugs. […] We exposed single cells to concentrations of 0.1 μM and then 1 μM of isoproterenol (Sigma, Saint Louis, Mo.) to test how the contractile activity of each cell varied after adding different amounts of isoproterenol to the medium. Omecamtiv mecarbil (Adooq Bioscience, Irvine, Calif.) was also added to the cell culture medium at 10 nM or 0.1 μM to detect different variations in the contractile response of hiPSC-CMs after adding one of these concentrations. We acquired videos of single beating hiPSC-CMs imaged with differential interference contrast microscopy at frame rates higher than 30 fps for a time between 4 and 10 s. We used MATLAB (R2014b version, Mathworks) to convert pixels of each frame to microns. Zeiss files (.czi) contained information on the pixel dimensions and were imported into MATLAB using the Bioformats package. ([…] 2010) We also confirmed the software calibration with calibration slides (Electron Microscopy Sciences). For each video of a beating single cell, we selected a region of interest (ROI) around the borders of the cell and analyzed average displacements within this ROI (FIG. 1B). For this purpose, we selected a baseline frame, within all the frames of the video, which represented the relaxed state of the cell and calculated average displacement within the ROI for the remaining frames relative to the baseline frame. As noted bellow, this procedure was automated. We then calculated displacements from microscopy videos with cross-correlation approaches: digital image correlation (DIC) and particle image velocimetry (PIV) approaches. […] Cross-correlation is done between sub-blocks of the image and the highest correlation indicates the maximum likelihood that blocks match. We tested the following cross-correlation algorithms: PIVIab, ImageJ PIV (Tseng 2012) and Ncorr. PIVIab and Ncorr were written in MATLAB, while ImageJ PIV is a plugin for ImageJ (NIH). Ncorr generally performs better, but uses more computational time. (Blaber 2015) We measured two parameters of asynchronicity of contractile movement within the ROI: spatial asynchronicity (aθ) of contractile movement and temporal asynchronicity (aδ) of contractile movement. Spatial synchronicity occurs when the different regions of the cell move along the same directions and temporal synchronicity occurs when all the regions of the cell move at the same time. To calculate aθ, we first computed the direction of movement (θ) for every movement vector of different regions i inside the ROI (FIG. 1B) at each frame as defined by For the calculation of aδ, we first determined the mean offset time b between the peaks of the displacement curves of different regions i (dcurrent) in the ROI and the peaks of the mean displacement ([…] occurs within the same ROI by mean, cross-correlation between the two curves, then refined this offset result using main peaks only (FIG. 8A): […]

## CC(C)NCC(O)c1ccc(O)c(O)c1 (stereo not drawn) [isoproterenol]
μpatterned hiPSC-CMs [1]; 0.1 μM isoproterenol
  minimal average sl: decreased
μpatterned hiPSC-CMs [1]; 0.1 μM isoproterenol (FIG. 7D)
  ss (sarcomere shortening): considerably increased
μpatterned hiPSC-CMs [1]; 1 μM isoproterenol
  minimal average sl: decrease even more
μpatterned hiPSC-CMs [1]; 1 μM isoproterenol (FIG. 7D)
  increase of ss (sarcomere shortening): not with 1 μM
μpatterned hiPSC-CMs [1]; 1 μM isoproterenol, relative to before adding (FIG. 7B)
  maximal mean values of sl: decreased
μpatterned hiPSC-CMs [1]
  average values of sl (sarcomere length): decreased
μpatterned hiPSC-CMs [2]; ISO 0.1 (μM per FIG. 4), no ISO: 0.01
  aδ (temporal asynchronicity): 0.02 s
μpatterned hiPSC-CMs [2]; ISO 0.1 (μM per FIG. 4), no ISO: 1.09
  d (displacement): 1.3 μm
μpatterned hiPSC-CMs [2]; ISO 0.1 (μM per FIG. 4), no ISO: 3.78
  VR (peak velocity of relaxation): 5.37 μm/s
μpatterned hiPSC-CMs [2]; ISO 0.1 (μM per FIG. 4), no ISO: 6.85
  VC (peak velocity of contraction): 9.3 μm/s
μpatterned hiPSC-CMs [2]; ISO 0.1 (μM per FIG. 4), no ISO: 31.4
  aθ (spatial asynchronicity): 75.5 °
μpatterned hiPSC-CMs [2]; ISO 1 (μM per FIG. 4), no ISO: 0.01
  aδ (temporal asynchronicity): 0.02 s
μpatterned hiPSC-CMs [2]; ISO 1 (μM per FIG. 4), no ISO: 1.09
  d (displacement): 0.68 μm
μpatterned hiPSC-CMs [2]; ISO 1 (μM per FIG. 4), no ISO: 3.78
  VR (peak velocity of relaxation): 3.65 μm/s
μpatterned hiPSC-CMs [2]; ISO 1 (μM per FIG. 4), no ISO: 6.85
  VC (peak velocity of contraction): 5.34 μm/s
μpatterned hiPSC-CMs [2]; ISO 1 (μM per FIG. 4), no ISO: 31.4
  aθ (spatial asynchronicity): 25.3 °
μpatterned hiPSC-CMs [2]; six cells, 0.1 and 1 μM isoproterenol (FIG. 9)
  variations of d, VC, VR, t̂ from brightfield videos between isoproterenol concentrations: did not yield differences in variations of parameters with statistical significance

## COC(=O)N1CCN(Cc2cccc(NC(=O)Nc3ccc(C)nc3)c2F)CC1 [omecamtiv mecarbil]
μpatterned hiPSC-CMs [1]; chronic and acute effects of omecamtiv mecarbil (FIG. 7F)
  maximal average sl: decrease
μpatterned hiPSC-CMs [1]; chronic and acute effects of omecamtiv mecarbil (FIG. 7G)
  minimum average sl: decrease
μpatterned hiPSC-CMs [1]; chronic and acute effects of omecamtiv mecarbil (FIG. 7H)
  average ss: decrease
μpatterned hiPSC-CMs [1]
  average values of sl (sarcomere length): decreased
μpatterned hiPSC-CMs [2]; 0.1 μM omecamtiv mecarbil, single cell (FIG. 6H)
  acute dmax from brightfield videos: considerable acute increase
μpatterned hiPSC-CMs [2]; 0.1 μM omecamtiv mecarbil, single cell (FIG. 6I)
  absolute values of VC and VR from brightfield videos, acute: increase
μpatterned hiPSC-CMs [2]; OM 0.1 μM (FIG. 6), row 'acute', no OM: 0.03
  aδ (temporal asynchronicity): 0.21 s
μpatterned hiPSC-CMs [2]; OM 0.1 μM (FIG. 6), row 'acute', no OM: 0.79
  d (displacement): 0.18 μm
μpatterned hiPSC-CMs [2]; OM 0.1 μM (FIG. 6), row 'acute', no OM: 2.87
  VR (peak velocity of relaxation): 0.54 μm/s
μpatterned hiPSC-CMs [2]; OM 0.1 μM (FIG. 6), row 'acute', no OM: 3.53
  VC (peak velocity of contraction): 0.71 μm/s
μpatterned hiPSC-CMs [2]; OM 0.1 μM (FIG. 6), row 'acute', no OM: 44.5
  aθ (spatial asynchronicity): 70.1 °
μpatterned hiPSC-CMs [2]; OM 0.1 μM (FIG. 6), row 'chronic', no OM: 0.03
  aδ (temporal asynchronicity): 0.04 s
μpatterned hiPSC-CMs [2]; OM 0.1 μM (FIG. 6), row 'chronic', no OM: 0.79
  d (displacement): 1.05 μm
μpatterned hiPSC-CMs [2]; OM 0.1 μM (FIG. 6), row 'chronic', no OM: 2.87
  VR (peak velocity of relaxation): 3.42 μm/s
μpatterned hiPSC-CMs [2]; OM 0.1 μM (FIG. 6), row 'chronic', no OM: 3.53
  VC (peak velocity of contraction): 4.35 μm/s
μpatterned hiPSC-CMs [2]; OM 0.1 μM (FIG. 6), row 'chronic', no OM: 44.5
  aθ (spatial asynchronicity): 68.8 °
